Results on twelve molecules are retold here after ChEMBL document CHEMBL1154640, “Application of desirability-based multi(bi)-objective optimization in the design of selective arylpiperazine derivates for the 5-HT1A serotonin receptor” (Eur J Med Chem, 2009).

In assay [1] the target is 5-hydroxytryptamine receptor 2A (Rattus norvegicus, UniProt P14842). The experiment in a line: Displacement of [3H]ketanserin from 5-HT2A receptor in Wistar Hannover rat brain cortex membrane.
The target in assay [2] is T1, 5-hydroxytryptamine receptor 1A (Homo sapiens, UniProt P08908).
T1 sequence (P08908 whole entry): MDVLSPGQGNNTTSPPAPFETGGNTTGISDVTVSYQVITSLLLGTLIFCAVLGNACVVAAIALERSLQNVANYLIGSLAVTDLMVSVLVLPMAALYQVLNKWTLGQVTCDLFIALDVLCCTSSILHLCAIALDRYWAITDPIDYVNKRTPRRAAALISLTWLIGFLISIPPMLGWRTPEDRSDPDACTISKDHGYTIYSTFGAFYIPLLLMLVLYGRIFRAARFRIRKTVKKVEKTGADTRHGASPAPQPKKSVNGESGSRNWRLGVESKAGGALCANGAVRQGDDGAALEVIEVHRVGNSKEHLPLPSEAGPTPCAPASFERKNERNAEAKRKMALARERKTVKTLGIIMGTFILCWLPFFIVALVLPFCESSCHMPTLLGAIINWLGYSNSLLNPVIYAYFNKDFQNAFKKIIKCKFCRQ
The experiment in a line: Displacement of [3H]8-OH-DPAT from human recombinant 5-HT1A receptor expressed in HEK293 cells after 120 mins. Type of assay: cell-based. In general terms: Displacement assays read how much labelled ligand stays bound in the presence of the test substance.

pKi: −log10 of the molar value.

Sequence of 5-hydroxytryptamine receptor 2A (P14842 whole entry): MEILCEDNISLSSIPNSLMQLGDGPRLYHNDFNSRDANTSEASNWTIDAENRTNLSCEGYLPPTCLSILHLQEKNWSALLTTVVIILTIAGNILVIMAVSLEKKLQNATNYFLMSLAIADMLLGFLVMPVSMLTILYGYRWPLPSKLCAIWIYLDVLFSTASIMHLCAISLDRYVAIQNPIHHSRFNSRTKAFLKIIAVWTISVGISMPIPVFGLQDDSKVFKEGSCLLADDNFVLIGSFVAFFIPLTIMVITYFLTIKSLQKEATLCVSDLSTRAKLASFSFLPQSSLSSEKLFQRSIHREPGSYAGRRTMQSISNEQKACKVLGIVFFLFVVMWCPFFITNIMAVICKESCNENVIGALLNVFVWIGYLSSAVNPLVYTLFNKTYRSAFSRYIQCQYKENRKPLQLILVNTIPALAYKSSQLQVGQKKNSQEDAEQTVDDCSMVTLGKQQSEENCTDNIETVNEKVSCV

Broadly, the pKi is the negative decadic logarithm of the Ki, by convention in mol/L. `COc1ccccc1N1CCN(CCCCn2cnc3ccccc3c2=O)CC1`: the results for the pKi in assay [1] and in assay [2] were 6.25 and 7.44, respectively.
On to `O=c1c2ccccc2c(=O)n(-c2ccccc2)n1CCCN1CCN(c2cccc(Cl)c2)CC1`, for which the figures for the pKi in assay [1] and in assay [2] were 6.18 and 6.38, respectively.
For `O=c1ccc(=O)n(-c2ccccc2)n1CCCCN1CCN(c2cccc(Cl)c2)CC1`, in that order: 5.74 and 7.30.
For `COc1ccccc1N1CCN(CCCCn2c(=O)c3ccccc3c(=O)n2-c2ccccc2)CC1`, the values for the pKi in assay [1] and in assay [2] were 6.43 and 7.37, respectively.
Taken in the same sequence, the figures for `COc1ccccc1N1CCN(CCCn2c(=O)c3ccccc3c(=O)n2-c2ccccc2)CC1` were 6.52 and 7.52.
In the case of `COc1ccccc1N1CCN(CCCCn2c(=O)ccc(=O)n2-c2ccccc2)CC1`, the pKi in assay [1] is 5.84; in assay [2], 7.96.
Take `COc1ccccc1N1CCN(CCCn2c(=O)ccc(=O)n2-c2ccccc2)CC1`: the pKi is 5.67 in assay [1] and 7.27 in assay [2].
Turning to `O=c1c2ccccc2ncn1CCCCN1CCN(c2cccc(Cl)c2)CC1`, the values for the pKi in assay [1] and in assay [2] were 7.17 and 7.30, respectively.
For `O=c1c2ccccc2c(=O)n(-c2ccccc2)n1CCCCN1CCN(c2cccc(Cl)c2)CC1`, in that order: 6.24 and 6.40.
For `O=c1ccc(=O)n(-c2ccccc2)n1CCCN1CCN(c2cccc(Cl)c2)CC1`, in that order: 6.57 and 6.69.
Taken in the same sequence, the figures for `O=c1c2ccccc2ncn1CCCN1CCN(c2cccc(Cl)c2)CC1` were 7.80 and 6.63.
Regarding `COc1ccccc1N1CCN(CCCn2cnc3ccccc3c2=O)CC1`, the figures for the pKi in assay [1] and in assay [2] were 6.34 and 7.00, respectively.
